How the values were obtained:
[1] = target: T1, Human immunodeficiency virus type 1 protease (Human immunodeficiency virus 1, UniProt Q72874)
[2] = target: Human immunodeficiency virus type 1 protease (Human immunodeficiency virus 1) (UniProt Q72874); test: Inhibition of HIV-1 protease in vitro.
[3] = target: Human immunodeficiency virus type 1 protease (Human immunodeficiency virus 1) (UniProt Q72874); test: Concentration required for 95% inhibition of Protease
[4] = Maximal plasma concentration in dogs at 10mg/kg oral dose 0.05M citric acid; settings: dog
[5] = target: T1, Human immunodeficiency virus type 1 protease; test: Concentration required for 50% inhibition of Protease
[6] = Partition coefficient (logP); settings: octanol/water
[7] = target: Human immunodeficiency virus type 1 protease (Human immunodeficiency virus 1) (UniProt Q72874); test: Concentration required for 95%Inhibition of Protease
[8] = in vivo; settings: dog, po, 10 mg/kg

Row | SMILES | IC50 [1] | IC95 [2] | Cmax [4] | other results
1 | CC(C)(C)NC(=O)C1CN(Cc2ccc3occc3c2)CCN1CC(O)CC(Cc1ccccc1)C(=O)NC1c2ccccc2CC1O (stereo not given) | 1.7 nM | 100 nM | – | –
2 | CC(C)(C)NC(=O)[C@@H]1CN(Cc2cc3cnccc3o2)CCN1C[C@@H](O)C[C@@H](Cc1ccccc1)C(=O)NC1c2ccccc2C[C@H]1O (stereo not given in full) | 0.22 nM | 6 nM | – | –
3 | CC(C)(C)NC(=O)[C@@H]1CN(C(=O)c2cnc3occc3c2)CCN1C[C@@H](O)C[C@@H](Cc1ccccc1)C(=O)NC1c2ccccc2C[C@H]1O (stereo not given in full) | – | – | 130 nM | IC95 [3]: 100 nM; IC50 [5]: 1.7 nM
4 | CCOc1ccc(CN2CCN(C[C@@H](O)C[C@@H](Cc3ccccc3)C(=O)NC3c4ccccc4C[C@H]3O)[C@H](C(=O)NC(C)(C)C)C2)cn1 (stereo not given in full) | 3.4 nM | 100 nM | 300 nM | logP [6]: 3.62
5 | CC(C)(C)NC(=O)[C@@H]1CN(Cc2cc3ccncc3o2)CCN1C[C@@H](O)C[C@@H](Cc1ccccc1)C(=O)NC1c2ccccc2C[C@H]1O (stereo not given in full) | 0.39 nM | 12.5 nM | 36500 nM | –
6 | CC(C)(C)NC(=O)C1CN(Cc2cc3cccnc3s2)CCN1CC(O)CC(Cc1ccccc1)C(=O)NC1c2ccccc2CC1O (stereo not given) | 0.11 nM | 12.5 nM | – | –
7 | CC(C)(C)NC(=O)[C@@H]1CN(Cc2cnc3ccccc3c2)CCN1C[C@@H](O)C[C@@H](Cc1ccccc1)C(=O)NC1c2ccccc2C[C@H]1O (stereo not given in full) | 0.14 nM | 25 nM | – | –
8 | CC(C)(C)NC(=O)C1CN(Cc2csc3ncccc23)CCN1CC(O)CC(Cc1ccccc1)C(=O)NC1c2ccccc2CC1O (stereo not given) | – | – | 230 nM | IC95 [7]: 6 nM; IC50 [5]: 0.2 nM
9 | CC(C)(C)NC(=O)[C@@H]1CN(Cc2cnc3c(c2)CCO3)CCN1C[C@@H](O)C[C@@H](Cc1ccccc1)C(=O)NC1c2ccccc2C[C@H]1O (stereo not given in full) | 0.68 nM | 25 nM | 160 nM | –
10 | CC(C)(C)NC(=O)C1CN(Cc2cc3cccnc3o2)CCN1CC(O)CC(Cc1ccccc1)C(=O)NC1c2ccccc2CC1O (stereo not given) | 0.32 nM | 50 nM | 1170 nM | –
11 | CC(C)(C)NC(=O)[C@@H]1CN(Cc2nc3ccccc3[nH]2)CCN1C[C@@H](O)C[C@@H](Cc1ccccc1)C(=O)NC1c2ccccc2C[C@H]1O (stereo not given in full) | 0.47 nM | 200 nM | – | –
12 | Cc1c(CN2CCN(CC(O)CC(Cc3ccccc3)C(=O)NC3c4ccccc4CC3O)C(C(=O)NC(C)(C)C)C2)oc2ccccc12 (stereo not given) | – | – | 408 nM | IC95 [3]: 25 nM; IC50 [5]: 0.11 nM
13 | CC(C)(C)NC(=O)[C@@H]1CN(Cc2cc3ccccc3o2)CCN1C[C@@H](O)C[C@@H](Cc1ccccc1)C(=O)N[C@H]1c2ccccc2C[C@H]1O [L 756423] | 0.18 nM | 25 nM | 28300 nM | concentration at 8 h [8]: 800 nM
14 | CC(C)(C)NC(=O)[C@@H]1CN(Cc2cccnc2)CCN1C[C@@H](O)C[C@@H](Cc1ccccc1)C(=O)N[C@H]1c2ccccc2C[C@H]1O | – | 50 nM | – | –
15 | CC(C)(C)NC(=O)[C@@H]1CN(Cc2ccc(Cl)nc2)CCN1C[C@@H](O)C[C@@H](Cc1ccccc1)C(=O)NC1c2ccccc2C[C@H]1O (stereo not given in full) | 0.49 nM | 12 nM | – | logP [6]: > 3.84
16 | CC(C)(C)NC(=O)[C@@H]1CN(Cc2cc3ccsc3s2)CCN1C[C@@H](O)C[C@@H](Cc1cccnc1)C(=O)N[C@H]1c2ccccc2C[C@H]1O | – | 6 nM | – | –
17 | CC(C)(C)NC(=O)C1CN(Cc2c[nH]c3ccccc23)CCN1CC(O)CC(Cc1ccccc1)C(=O)NC1c2ccccc2CC1O (stereo not given) | 1.7 nM | 50 nM | – | –
18 | Cc1cc2oc(CN3CCN(C[C@@H](O)C[C@@H](Cc4ccccc4)C(=O)NC4c5ccccc5C[C@H]4O)[C@H](C(=O)NC(C)(C)C)C3)cc2cn1 (stereo not given in full) | 0.19 nM | 12 nM | – | –
19 | CC(C)(C)NC(=O)[C@@H]1CN(Cc2cnc3ccoc3c2)CCN1C[C@@H](O)C[C@@H](Cc1ccccc1)C(=O)NC1c2ccccc2C[C@H]1O (stereo not given in full) | 0.17 nM | 3 nM | 9720 nM | concentration at 8 h [8]: 1550 nM
20 | CC(C)(C)NC(=O)[C@@H]1CN(Cc2cnc3occc3c2)CCN1C[C@@H](O)C[C@@H](Cc1ccccc1)C(=O)N[C@H]1c2ccccc2C[C@H]1O | 0.35 nM | 6 nM | 15000 nM | concentration at 8 h [8]: 9430 nM
21 | Cc1nn(C)c2ncc(CN3CCN(C[C@@H](O)C[C@@H](Cc4ccccc4)C(=O)NC4c5ccccc5C[C@H]4O)[C@H](C(=O)NC(C)(C)C)C3)c(Cl)c12 (stereo not given in full) | – | – | – | IC95 [3]: 12.5 nM; IC50 [5]: 0.14 nM
22 | CSc1ncccc1CN1CCN(C[C@@H](O)C[C@@H](Cc2ccccc2)C(=O)NC2c3ccccc3C[C@H]2O)[C@H](C(=O)NC(C)(C)C)C1 (stereo not given in full) | 0.26 nM | 15.6 nM | – | –
23 | CC(C)(C)NC(=O)C1CN(Cc2cc3cc(CO)cnc3o2)CCN1CC(O)CC(Cc1ccccc1)C(=O)NC1c2ccccc2CC1O (stereo not given) | – | – | – | IC95 [3]: 62.5 nM; IC50 [5]: 0.18 nM
24 | CCOC(=O)c1cnc2oc(CN3CCN(CC(O)CC(Cc4ccccc4)C(=O)NC4c5ccccc5CC4O)C(C(=O)NC(C)(C)C)C3)cc2c1 (stereo not given) | – | – | – | IC95 [3]: 25 nM; IC50 [5]: 0.27 nM
25 | CC(C)(C)NC(=O)[C@@H]1CN(Cc2cnc3occc3c2Cl)CCN1C[C@@H](O)C[C@@H](Cc1ccccc1)C(=O)NC1c2ccccc2C[C@H]1O (stereo not given in full) | 0.25 nM | 15.6 nM | 3940 nM | concentration at 8 h [8]: 2060 nM
26 | COc1ncccc1CN1CCN(C[C@@H](O)C[C@@H](Cc2ccccc2)C(=O)NC2c3ccccc3C[C@H]2O)[C@H](C(=O)NC(C)(C)C)C1 (stereo not given in full) | 1.1 nM | 12 nM | 515 nM | logP [6]: > 3.84
27 | Cc1ccc(CN2CCN(C[C@@H](O)C[C@@H](Cc3ccccc3)C(=O)NC3c4ccccc4C[C@H]3O)[C@H](C(=O)NC(C)(C)C)C2)cn1 (stereo not given in full) | 0.62 nM | 100 nM | – | logP [6]: 2.14
28 | Cc1nn(C)c2ncc(CN3CCN(C[C@@H](O)C[C@@H](Cc4ccccc4)C(=O)NC4c5ccccc5C[C@H]4O)[C@H](C(=O)NC(C)(C)C)C3)cc12 (stereo not given in full) | – | – | 190 nM | IC95 [3]: 6 nM; IC50 [5]: 0.35 nM

— ChEMBL document CHEMBL1133637, “Identification of MK-944a: a second clinical candidate from the hydroxylaminepentanamide isostere series of HIV protease inhibitors” (J Med Chem, 2000)
